Key:
Assay type in all cases: in vivo, human
[1] = system: patients with overactive bladder (OAB) associated with predominant urge incontinence; assay: Same Phase III study, safety (adverse events, clinical laboratory tests, vital signs, ECG)
Experimental: A multicenter, double-blind, placebo-controlled study of 20 mg, twice-daily trospium chloride for 12 weeks followed by a 9-month, open-label treatment phase in patients with overactive bladder.
Multicenter, parallel, randomized, double-blind, placebo-controlled trial of patients with overactive bladder (OAB) associated with predominant urge incontinence. Patients who were currently receiving OAB drug therapy were to begin treatment after a 3-week washout period that included the 7-day patient urinary diary collection. Patients who were not currently receiving OAB drug therapy (i.e., naive patients) could begin treatment with study medication following their 7-day patient urinary diary collection and continued for a total double-blind treatment duration of 12 weeks.
Patients were randomized on a 1:1 basis to receive either placebo or trospium chloride 20 mg twice daily during the double-blind treatment segment of the study. The randomization schedule for patients was stratified by the mean baseline number of micturitions (i.e., toilet voids) per 24 hours (collected via the patient urinary diary over 7 days); specifically, using the stratified categories of 10 to 15, 16 to 20, and ≧21 mean micturitions per 24 hours. Patients were periodically evaluated during the 12-week treatment segment and were to return on Day 84 for the Week 12 assessments.
Adverse events (AEs), clinical laboratory tests, vital signs, and 12-lead electrocardiograms (ECGs).
The Fisher's Exact test was used to analyze adverse events. Other categorical data were analyzed using the Cochran-Mantel-Haenszel (CMH) procedure with center as the stratification variable. For all continuous data analyses, an analysis of variance (ANOVA) model with center and treatment was used.

[2] = system: People complaining of frequent wakefulness throughout the night due to repeated urges to urinate; assay: Example 3: single dose before sleeping in people with frequent wakefulness at night; settings: 20 mg given 1.0 h before sleeping
Experimental: People complaining of frequent wakefulness throughout the night due to repeated urges to urinate are given 20 mg of trospium chloride 1.0 h before sleeping.

[3] = system: Patients with overactive bladder associated with predominant urge incontinence and complaining of frequent wakefulness throughout the night; assay: Example 2: single dose before sleeping in overactive bladder patients with frequent wakefulness at night; settings: 20 mg given 0.5 h before sleeping
Experimental: Patients with overactive bladder associated with predominant urge incontinence and complaining of frequent wakefulness throughout the night due to repeated urges to urinate are given 20 mg of trospium chloride 0.5 h before sleeping.

[4] = system: patients with overactive bladder (OAB) associated with predominant urge incontinence; assay: Phase III multicenter, double-blind, placebo-controlled 12-week study of trospium chloride 20 mg twice daily (#IP631-003), efficacy from patient urinary diary
Text: A multi-center, parallel, randomized, double-blind, placebo controlled study (#IP631-003) was based on data collected as a result of administering the IUSS during a 12-week^1-clinical trial of patients with overactive bladder (OAB) associated with predominant urge incontinence—for trospium chloride in the United States. For full details on the clinical study ethics, administration, objectives and design, selection of study population, treatments, efficacy and safety variables and statistical methodology please refer to the clinical study protocol #IP631-003 and the ‘Final Report for the Double-Blind Phase’ prepared by Quintiles Inc.
The IUSS (Appendix A) asks patients about their ‘degree of urgency’ of their toilet voids (as meant to describe the urge to urinate). Patients are asked to rate the degree of urgency they felt before reaching the toilet for a toilet void (defined in the study as urination in the toilet). The instructions state that “Sometimes you may feel a very strong urge to urinate, and at other times, you may feel a milder urge prior to the onset of a toilet void. Rate this feeling by circling 0, 1, 2 or 3.” The instructions specify the following four response options: • 0: None—no urgency; • 1: Mild—awareness of urgency, but is easily tolerated and you can continue with your usual activity or tasks; • 2: Moderate—enough urgency discomfort that it interferes with or shortens your usual activity or tasks; and • 3: Severe—extreme urgency discomfort that abruptly stops all activity or tasks.
This single-item Urgency Severity Scale was contained within a ‘Patient Urinary Diary’, which was completed by all patients during four discrete one-week periods in the course of the 12-week double-blind trial (baseline and study treatment weeks 1, 4 and 12). During each of the one-week data collection periods, patients completed the diary every day for a total of seven days. […] In the diary, an urge leak was defined as a leakage due to a very strong need or desire to urinate. A stress leak was defined as being a result of coughing, sneezing, standing, laughing, exercise, or other physical activity/movement exerting pressure on the bladder. In addition, during the last two days of the 7-day diary collection period (days 6 and 7), patients collected and measured all urine volume for each and every toilet void and recorded this within the diary.
The study population for the clinical trial was 523 patients who received at least one dose of the study medication. Patients who entered the trial were required to have overactive bladder, defined as: • Urinary frequency of ≧70 toilet voids per 7 days (i.e. ≧10 toilet voids per day) as recorded in a patient urinary diary during a “washout” period; • Symptoms of urgency (i.e. sudden desire to toilet void); • Pure urge or mixed urinary incontinence with predominant urge incontinence.
Trospium chloride is an anticholinergic agent with predominantly peripheral antimuscarinic activity. Its mechanism enables the detrusor to relax, inhibiting evacuation of the bladder. Patients were randomized on a 1:1 basis to receive either placebo or trospium chloride. Patients receiving trospium chloride took one 20-mg tablet twice daily. Those receiving placebo took one placebo tablet twice daily. The identity of the study medication was blinded.
Patients completed a patient diary on a daily basis during four one-week data collection windows: baseline, week 1, week 4 and week 12. The diary collected the following patient-reported outcome data: • IUSS; • Number of toilet voids; • Number of urge incontinence episodes, and separately, stress incontinence episodes; • Volume voided (mL), collected on the last 2 of 7 days of the 7 day diary.
A multicenter, double-blind, placebo-controlled study of 20 mg, twice-daily trospium chloride for 12 weeks followed by a 9-month, open-label treatment phase in patients with overactive bladder. […]

Question: Which “Overall safety and tolerability” value ([1]; 20 mg twice daily, 12 weeks) does the source give for `O=C(O[C@H]1C[C@H]2CC[C@@H](C1)[N+]21CCCC1)C(O)(c1ccccc1)c1ccccc1` [Trospium, 3-alpha-benziloyloxynortropane-8-spiro-1′-pyrrolidinium chloride] here?
Answer: safe and generally well tolerated

Question: What about the “Patients with QTcF intervals >500 msec that had increased by >60 msec from baseline” value ([1]; 1 patient in each treatment group, no clinical signs, resolved at endpoint) of the same molecule?
Answer: 1 patient

Question: And the “Patients in whom study medication was permanently discontinued due to TEAEs (percent)” value ([1]; 12-week double-blind phase, 20 mg twice daily, placebo 5.7%)?
Answer: 8.8%

Question: What about the “Patients in whom study medication was permanently discontinued due to TEAEs (number)” value ([1]; 12-week double-blind phase, 20 mg twice daily, placebo 15 patients) of the same molecule?
Answer: 23 patients

Question: And the “Patients who experienced an adverse event leading to death” value ([1]; person, hemorrhagic stroke on Day 57, assessed as remotely related to study medication)?
Answer: 1 patient

Question: And the “Most common TEAEs that led to discontinuation of study medication” value ([1]; trospium group)?
Answer: dry mouth, constipation, abdominal pain NOS, and urinary retention

Question: What about the “Sleep during the normal sleep period” value [2] of the same molecule?
Answer: uninterrupted sleep throughout their normal sleep periods

Question: What about the “Sleep during the normal sleep period” value [3] of the same molecule?
Answer: uninterrupted sleep throughout their normal sleep periods

Question: And the “Mean change from baseline: Number of toilet voids/24 hours” value ([4]; Week 12, 20 mg oral tablet twice daily, N = 253, ITT:LOCF, placebo −1.29, P <0.0001)?
Answer: −2.37

Question: And the “Mean change from baseline: Volume voided (mL) per toilet void/24 hours” value ([4]; Week 12, 20 mg twice daily, N = 248, ITT:LOCF, placebo 7.72, P <0.0001)?
Answer: 32.14 mL

Question: And the “Mean change from baseline: Urgency severity score associated with toilet voids (IUSS, 0-3)” value ([4]; Week 12, 20 mg twice daily, N = 253, ITT:LOCF, placebo −0.04, P 0.0001)?
Answer: −0.22

Question: And the “Mean change from baseline: Number of nocturnal toilet voids/24 hours” value ([4]; Week 12, 20 mg twice daily, N = 253, ITT:LOCF, placebo −0.29, P 0.0255)?
Answer: −0.47

Question: What about the “Mean change from baseline: Number of urge incontinence episodes/24 hours” value ([4]; Week 12, 20 mg twice daily, N = 253, ITT:LOCF, placebo −1.98, P 0.0118 (ranked ANOVA)) of the same molecule?
Answer: −2.20

Question: What about the “Change in average urgency severity per 24 hours compared with placebo” value ([4]; at Weeks 1, 4, and 12) of the same molecule?
Answer: significant decrease

Question: What about the “Change in average volume voided compared with placebo” value ([4]; at Weeks 1, 4, and 12) of the same molecule?
Answer: statistically significant increase

Question: And the “Change in average number of toilet voids per 24 hours compared with placebo” value ([4]; at Weeks 1, 4, and 12, improvement = decrease)?
Answer: statistically significant (p≦0.05) improvement

Question: And the “Change in average number of urge incontinence episodes per 24 hours compared with placebo” value ([4]; at Weeks 4 and 12, improvement = decrease)?
Answer: statistically significant (p≦0.05) improvement

Question: And the “Onset of action during Week 1 for effect on toilet voids, urge incontinence episodes, and total micturitions per 24 hours” value ([4]; consistently significant effects by Day 7)?
Answer: superior when compared with placebo

Question: And the “Average reduction in mean number of urgency episodes (IUSS severity >0)” value ([4]; over the 12-week trial, baseline mean 11.29, placebo reduction 1.08, p<0.01)?
Answer: 2.30 urgency episodes

Reference: patent publication US20050009862A1, “Method for promoting uninterrupted sleep by administration of trospium chloride” (priority 2003, published 2005)
